Assay [1] deals with Mitogen-activated protein kinase kinase kinase 20 (Homo sapiens) (UniProt Q9NYL2). Briefly: Inhibition of ZAK (unknown origin) assessed as remaining activity at 1 uM by Kinome scan method relative to control.
Assay [2] deals with Serine/threonine-protein kinase 16 (Homo sapiens) (UniProt O75716). The assay can be described thus: Inhibition of STK16 (unknown origin) assessed as remaining activity at 1 uM by Kinome scan method relative to control.
Assay [3] deals with Fibroblast growth factor receptor 1 (Homo sapiens) (UniProt P11362). Briefly: Inhibition of FGFR1 (unknown origin) assessed as remaining activity at 1 uM by Kinome scan method relative to control.
Sequence of Fibroblast growth factor receptor 1 (Homo sapiens) (P11362 22-822 limits assumed): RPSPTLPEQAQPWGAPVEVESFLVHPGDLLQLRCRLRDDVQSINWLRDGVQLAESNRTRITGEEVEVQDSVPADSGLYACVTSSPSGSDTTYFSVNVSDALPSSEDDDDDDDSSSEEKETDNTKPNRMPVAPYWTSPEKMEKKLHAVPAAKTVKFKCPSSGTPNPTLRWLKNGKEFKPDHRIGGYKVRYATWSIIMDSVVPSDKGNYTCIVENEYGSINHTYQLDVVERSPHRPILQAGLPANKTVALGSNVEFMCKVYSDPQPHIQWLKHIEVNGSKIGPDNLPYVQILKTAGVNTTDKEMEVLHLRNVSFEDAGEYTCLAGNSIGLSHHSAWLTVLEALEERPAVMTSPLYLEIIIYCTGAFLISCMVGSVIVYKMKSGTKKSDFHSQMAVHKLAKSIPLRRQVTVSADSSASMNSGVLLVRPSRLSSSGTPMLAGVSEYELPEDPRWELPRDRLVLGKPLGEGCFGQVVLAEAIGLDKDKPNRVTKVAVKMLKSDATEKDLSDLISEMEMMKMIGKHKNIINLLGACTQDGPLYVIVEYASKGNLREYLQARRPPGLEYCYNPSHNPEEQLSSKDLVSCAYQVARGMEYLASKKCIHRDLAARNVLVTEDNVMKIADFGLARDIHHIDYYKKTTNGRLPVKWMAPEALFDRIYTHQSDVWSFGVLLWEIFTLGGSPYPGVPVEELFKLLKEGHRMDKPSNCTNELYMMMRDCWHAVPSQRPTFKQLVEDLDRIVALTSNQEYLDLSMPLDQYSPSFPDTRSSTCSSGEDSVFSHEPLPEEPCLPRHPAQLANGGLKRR
Assay [4] addresses Hormonally up-regulated neu tumor-associated kinase (Homo sapiens) (UniProt P57058). Briefly: Inhibition of HUNK (unknown origin) assessed as remaining activity at 1 uM by Kinome scan method relative to control.
In assay [5] the test system is Tyrosine-protein kinase ABL1 (Homo sapiens), P00519 [F317I]. Briefly: Inhibition of ABL1 F317I mutant (unknown origin) assessed as remaining activity at 1 uM by Kinome scan method relative to control.
Assay [6] concerns the target Serine/threonine-protein kinase 10 (Homo sapiens) (UniProt O94804). Briefly: Inhibition of LOK (unknown origin) assessed as remaining activity at 1 uM by Kinome scan method relative to control.
The target of assay [7] is Dual specificity mitogen-activated protein kinase kinase 7 (Homo sapiens) (UniProt O14733). Briefly: Inhibition of MKK7 (unknown origin) assessed as remaining activity at 1 uM by Kinome scan method relative to control.
Sequence of Dual specificity mitogen-activated protein kinase kinase 7 (Homo sapiens) (O14733 whole entry, the tested form may be a part): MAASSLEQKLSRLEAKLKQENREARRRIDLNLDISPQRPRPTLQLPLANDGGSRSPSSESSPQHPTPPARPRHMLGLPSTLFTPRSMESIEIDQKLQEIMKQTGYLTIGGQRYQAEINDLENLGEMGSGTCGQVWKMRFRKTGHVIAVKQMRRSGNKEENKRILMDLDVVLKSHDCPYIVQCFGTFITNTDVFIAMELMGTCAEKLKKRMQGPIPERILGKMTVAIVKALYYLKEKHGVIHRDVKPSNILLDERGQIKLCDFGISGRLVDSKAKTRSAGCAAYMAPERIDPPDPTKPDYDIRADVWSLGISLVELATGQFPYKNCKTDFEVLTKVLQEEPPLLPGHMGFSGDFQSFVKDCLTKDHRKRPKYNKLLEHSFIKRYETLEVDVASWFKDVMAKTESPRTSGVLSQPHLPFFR
Assay [8] deals with Ribosomal protein S6 kinase alpha-1 (Homo sapiens) (UniProt Q15418). Briefly: Inhibition of C-terminal kinase domain RSK1 (unknown origin) assessed as remaining activity at 1 uM by Kinome scan method relative to control.
Assay [9] addresses Casein kinase II subunit alpha (Homo sapiens) (UniProt P68400). Briefly: Inhibition of CSNK2A1 (unknown origin) assessed as remaining activity at 1 uM by Kinome scan method relative to control.
Assay [10] addresses Bone morphogenetic protein receptor type-2 (Homo sapiens) (UniProt Q13873). The assay can be described thus: Inhibition of BMPR2 (unknown origin) assessed as remaining activity at 1 uM by Kinome scan method relative to control.
Assay [11] has as its target Serine/threonine-protein kinase PknB (Mycobacterium tuberculosis) (UniProt P9WI81). Briefly: Inhibition of Mycobacterium tuberculosis PknB assessed as remaining activity at 1 uM by Kinome scan method relative to control.
Assay [12] addresses Receptor-type tyrosine-protein kinase FLT3 (Homo sapiens) (UniProt P36888). Briefly: Inhibition of FLT3 (unknown origin) assessed as remaining activity at 1 uM by Kinome scan method relative to control.
The target in assay [13] is Ribosomal protein S6 kinase alpha-3 (Homo sapiens) (UniProt P51812). The assay can be described thus: Inhibition of N-terminal kinase domain RSK2 (unknown origin) assessed as remaining activity at 1 uM by Kinome scan method relative to control.

Sequence of Bone morphogenetic protein receptor type-2 (Homo sapiens) (Q13873 whole entry): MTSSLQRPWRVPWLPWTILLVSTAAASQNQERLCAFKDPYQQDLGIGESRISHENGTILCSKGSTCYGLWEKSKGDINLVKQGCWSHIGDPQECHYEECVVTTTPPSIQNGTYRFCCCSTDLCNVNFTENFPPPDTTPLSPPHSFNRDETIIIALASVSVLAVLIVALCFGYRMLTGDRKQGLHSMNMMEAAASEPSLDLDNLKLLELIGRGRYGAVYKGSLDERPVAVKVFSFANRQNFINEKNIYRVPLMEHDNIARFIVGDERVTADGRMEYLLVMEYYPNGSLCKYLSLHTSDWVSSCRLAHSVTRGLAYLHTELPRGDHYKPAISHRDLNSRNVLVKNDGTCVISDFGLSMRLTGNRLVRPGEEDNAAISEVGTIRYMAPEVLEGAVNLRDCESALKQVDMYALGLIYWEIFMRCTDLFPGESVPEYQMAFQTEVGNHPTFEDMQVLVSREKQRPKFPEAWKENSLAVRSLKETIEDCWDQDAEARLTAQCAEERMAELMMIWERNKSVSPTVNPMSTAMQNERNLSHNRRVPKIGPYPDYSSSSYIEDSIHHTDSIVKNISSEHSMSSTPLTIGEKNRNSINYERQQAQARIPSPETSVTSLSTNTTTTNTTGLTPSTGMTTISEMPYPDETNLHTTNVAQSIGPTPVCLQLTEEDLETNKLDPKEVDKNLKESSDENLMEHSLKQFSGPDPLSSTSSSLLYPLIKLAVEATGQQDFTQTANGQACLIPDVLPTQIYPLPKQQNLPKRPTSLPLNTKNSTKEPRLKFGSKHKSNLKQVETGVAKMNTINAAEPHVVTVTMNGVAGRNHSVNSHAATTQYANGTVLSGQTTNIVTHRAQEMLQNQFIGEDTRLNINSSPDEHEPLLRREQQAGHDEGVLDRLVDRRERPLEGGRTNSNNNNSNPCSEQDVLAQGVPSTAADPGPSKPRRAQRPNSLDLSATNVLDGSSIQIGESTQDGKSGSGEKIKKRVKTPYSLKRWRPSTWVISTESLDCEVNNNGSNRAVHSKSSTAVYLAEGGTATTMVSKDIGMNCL
Sequence of Mitogen-activated protein kinase kinase kinase 20 (Homo sapiens) (Q9NYL2 2-800 limits assumed): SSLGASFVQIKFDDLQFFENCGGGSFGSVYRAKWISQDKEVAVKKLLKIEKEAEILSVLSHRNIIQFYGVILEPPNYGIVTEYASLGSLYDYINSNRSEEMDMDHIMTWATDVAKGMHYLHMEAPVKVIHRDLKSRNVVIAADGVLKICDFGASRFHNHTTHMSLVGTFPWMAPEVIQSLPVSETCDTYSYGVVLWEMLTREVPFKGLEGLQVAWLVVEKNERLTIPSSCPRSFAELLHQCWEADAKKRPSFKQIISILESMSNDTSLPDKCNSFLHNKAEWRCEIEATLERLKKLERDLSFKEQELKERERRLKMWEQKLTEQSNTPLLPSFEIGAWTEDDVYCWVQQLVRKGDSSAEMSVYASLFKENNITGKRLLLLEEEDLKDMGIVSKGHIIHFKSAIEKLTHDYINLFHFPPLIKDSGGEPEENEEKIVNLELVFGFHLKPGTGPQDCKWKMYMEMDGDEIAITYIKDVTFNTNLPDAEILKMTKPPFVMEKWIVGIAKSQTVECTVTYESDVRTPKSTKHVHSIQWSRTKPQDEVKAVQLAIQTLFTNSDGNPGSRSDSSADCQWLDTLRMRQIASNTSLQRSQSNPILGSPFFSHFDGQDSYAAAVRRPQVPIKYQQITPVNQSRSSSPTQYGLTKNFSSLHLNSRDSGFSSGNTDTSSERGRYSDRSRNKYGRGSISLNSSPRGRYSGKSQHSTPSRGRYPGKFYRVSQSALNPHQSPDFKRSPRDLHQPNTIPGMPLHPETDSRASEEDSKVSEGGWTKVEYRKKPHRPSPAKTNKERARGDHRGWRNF
Sequence of Serine/threonine-protein kinase PknB (Mycobacterium tuberculosis) (P9WI81 whole entry): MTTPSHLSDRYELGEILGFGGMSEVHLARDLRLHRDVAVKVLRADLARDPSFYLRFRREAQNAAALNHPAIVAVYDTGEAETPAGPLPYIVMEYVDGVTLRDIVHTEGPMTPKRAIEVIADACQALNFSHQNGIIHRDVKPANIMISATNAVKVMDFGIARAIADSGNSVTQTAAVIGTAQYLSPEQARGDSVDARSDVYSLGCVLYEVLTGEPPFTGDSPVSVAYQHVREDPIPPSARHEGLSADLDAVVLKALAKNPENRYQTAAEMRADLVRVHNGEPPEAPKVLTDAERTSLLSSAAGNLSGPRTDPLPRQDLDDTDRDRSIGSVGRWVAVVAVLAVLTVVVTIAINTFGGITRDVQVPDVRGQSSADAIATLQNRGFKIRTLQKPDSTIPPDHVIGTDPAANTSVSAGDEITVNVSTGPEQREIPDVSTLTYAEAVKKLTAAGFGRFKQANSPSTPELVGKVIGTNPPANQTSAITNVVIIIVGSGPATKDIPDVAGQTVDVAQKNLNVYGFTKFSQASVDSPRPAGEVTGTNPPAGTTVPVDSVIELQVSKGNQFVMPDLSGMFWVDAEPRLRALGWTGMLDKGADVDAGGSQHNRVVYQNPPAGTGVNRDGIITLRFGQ
Sequence of Serine/threonine-protein kinase 16 (Homo sapiens) (O75716 whole entry): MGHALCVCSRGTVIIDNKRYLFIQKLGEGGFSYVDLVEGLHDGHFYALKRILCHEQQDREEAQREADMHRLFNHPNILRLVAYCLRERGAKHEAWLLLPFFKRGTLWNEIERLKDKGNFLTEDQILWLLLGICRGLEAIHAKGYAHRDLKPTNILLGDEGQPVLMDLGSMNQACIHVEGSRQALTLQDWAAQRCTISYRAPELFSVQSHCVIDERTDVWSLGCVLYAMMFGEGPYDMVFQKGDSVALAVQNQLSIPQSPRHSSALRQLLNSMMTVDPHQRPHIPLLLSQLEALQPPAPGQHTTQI
Sequence of Casein kinase II subunit alpha (Homo sapiens) (P68400 whole entry, looked up): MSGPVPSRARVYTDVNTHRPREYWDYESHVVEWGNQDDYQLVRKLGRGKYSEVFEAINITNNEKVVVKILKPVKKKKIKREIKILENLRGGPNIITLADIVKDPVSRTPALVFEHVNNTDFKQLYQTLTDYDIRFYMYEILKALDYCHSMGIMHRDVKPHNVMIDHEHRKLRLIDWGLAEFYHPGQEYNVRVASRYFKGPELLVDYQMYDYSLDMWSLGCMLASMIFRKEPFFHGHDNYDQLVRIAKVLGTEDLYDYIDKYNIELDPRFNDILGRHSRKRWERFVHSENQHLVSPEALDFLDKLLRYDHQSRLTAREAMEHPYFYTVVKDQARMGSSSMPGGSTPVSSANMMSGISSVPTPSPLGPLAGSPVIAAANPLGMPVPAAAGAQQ

On to `C=CC(=O)Nc1cc(-n2c(=O)ccc3cnc4ccc(-c5ccc(NS(C)(=O)=O)cc5)cc4c32)ccc1C`, for which the Activity is 64% in assay [1]; 98% in assay [2]; 92% in assay [3]; 85% in [4]; 81% in assay [5]; 87% in [6]. In addition, the Activity in assay [7] came to 49%; in [8], 91%; in assay [9] it was 84%; in [10], 69%; in assay [11] it was 41%; in assay [12], 80%. Moreover, in [13], the Activity came to 81%.

For the origin of these results see ChEMBL document CHEMBL5715949, “Discovery of a selective irreversible BMX inhibitor for prostate cancer” (ACS Chem Biol, 2013).
